Values of other authors, collected in patent US11000479B2, “Injectable long-acting naltrexone microparticle compositions” (Chong Kun Dang Pharmaceutical Corp., priority 2018, dated 2021).

What was measured:
[1] = test system: morphine induced analgesia; conditions: rat model, hot-plate test
[2] = test system: heroin/diamorphine effects

Structure (SMILES): O=C1CC[C@@]2(O)[C@H]3Cc4ccc(O)c5c4[C@@]2(CCN3CC2CC2)[C@H]1O5 [naltrexone]
- plasma naltrexone concentration shown to be effective [1]: 1 to 2 ng/mL
- naltrexone level that completely antagonized heroin ([2]; 25 mg of heroin (Verebey et al. 1976)): 2.4 ng/mL
- levels targeted as sufficient to offer protection from fatal opioid overdose ([2]; Hulse et al. 2005, Comer et al. 2002): 1 to 2 ng/mL
- serum naltrexone level sufficient to block pure diamorphine ([2]; doses as high as 500 mg diamorphine, two patients (Brewer 2002)): 2.8 ng/mL
